Source: patent publication US20240269145A1, “USE OF INDOLE COMPOUND AS INHIBITORS OF FERROPTOSIS” (MITOIMMUNE THERAPEUTICS INC., priority 2023, published 2024)

Columns and labels:
Format in all cases: cell-based
HT-22 cells = assay: Cytosolic lipid ROS after erastin, Experimental Example 3-2; conditions: HT-22, erastin 1 μM, compound at 10 μM
Method: [The source words this procedure for another cell line and says it was used here with some conditions changed.] (§1) Experimental Example 3-1: To confirm the protective effect against cytosolic lipid reactive oxygen species in lung epithelial cells, 2×10^5 MLE-12 cells were dispensed into each well of a 12-well plate and cultured for 18 to 24 hours. Each well was treated with Example Compound 1 and ferrostatin-1, which were diluted so that their final concentration became 0.01, 0.1, 1, and 10 μM, and culture was performed for 15 minutes. Afterwards, the cells were treated so that the final concentration of RSL3 became 1 μM, and cultured for 2 hours. To confirm the inhibitory effect against cytosolic lipid reactive oxygen species, BODIPY™ 581/591 C11 (lipid peroxidation sensor) [Invitrogen™; D3861] was used. According to the manufacturer's experimental method, BODIPY™ 581/591 C11 was diluted in the cell culture medium so that the final concentration became 5 μM, and the cells were treated therewith and allowed to react for 30 minutes to perform fluorescent staining. The MLE-12 cells fluorescently stained with BODIPY™ 581/591 C11 were detached from the 12-well plate using 0.25% Trypsin-EDTA and transferred to a microtube, and the fluorescence (excitation/absorption 500 to 650 nm/510 to 665 nm) was measured using BD FACSLyric™ to calculate the rate of change compared to the control group. […]

H9C2 cells = assay: Cytosolic iron ion accumulation (FerroOrange, images) after erastin; conditions: H9C2, erastin 1 μM, 7 hours; Example Compound 1 1 μM, DFO 10 or 100 μM
Method: To confirm the inhibitory effect against cytosolic iron ion accumulation in adrenal medulla cells and cardiac cells, 3×10^5 PC-12 cells and H9C2 cells were each dispensed into a 35 mm confocal dish and cultured for 18 to 36 hours. Each well was treated with the Example Compound 1, which was diluted so that the final concentration became 1 μM, and with DFO, which was diluted so that the final concentration became 10 µM and 100 μM, and culture was performed for 20 to 30 minutes. Afterwards, the PC-12 cells and H9C2 cells were each treated with RSL3 and erastin so that their final concentration became 0.3 µM and 1 μM, respectively, and cultured for 1 hour and 7 hours. To confirm the inhibitory effect against cytosolic iron ion accumulation, FerroOrange [DOJINDO; F374] was used. According to the manufacturer's experimental method, FerroOrange was diluted in the cell culture medium so that the final concentration became 1 μM, and the cells were treated therewith. […] The cells fluorescently stained with FerroOrange were observed using a fluorescence microscope [Carl Zeiss; Axio Observer 7] to investigate the change in fluorescence (excitation/absorption 580 nm/543 nm) compared to the control group (RSL3 and erastin untreated group).

PC-12 cells = assay: Cytosolic lipid ROS after RSL3, Experimental Example 3-4; conditions: PC-12, RSL3 0.3 μM, 1 hr
Method: [The source words this procedure for another cell line and says it was used here with some conditions changed.] as §1

O=S1(=O)CCN(Cc2cc(NC3CCOCC3)c3[nH]c(-c4ccccc4)cc3c2)CC1 [Example 1, 5-[(1,1-dioxido-4-thiomorpholinyl)methyl]-2-phenyl-N-(tetrahydro-2H-pyran-4-yl)-1H-indole-7-amine]
cytosolic lipid reactive oxygen species increased by erastin (HT-22 cells): inhibited
cytosolic lipid reactive oxygen species increased by erastin (HT-22 cells; 4 hours and 8 hours after treatment): effectively inhibited
cytosolic iron ion accumulation (images) (H9C2 cells): decrease was confirmed
concentration at which cytosolic lipid reactive oxygen species were significantly decreased (PC-12 cells): 0.1 µM
